As usually defined, the melting point is the temperature of the solid-liquid transition. A word on the IC50: it is the concentration that gives 50% inhibition.

This is an account of results in US9642847B2, “Combinational compositions and methods for treatment of cancer” (ArQule, Inc., priority 2009, dated 2017).

Each structure is given as a SMILES string. “And” between values parts separate entries of the source, which are not always exact repeats. Identical values can stand only once. Like-named read-outs stand apart in the source and are kept apart here.

Data set [1] has as its system MKN-45 human gastric tumor xenograft. Type of data set: in vivo. The conditions noted are these: for BW loss: on day 21. The procedure: 5-FU was administered daily at 10 mg/kg intravenously, five days a week for two weeks. TS-1 was administered daily at 10 mg/kg orally, five days a week for two weeks. Capecitabine was administered daily at 360 mg/kg orally, five days a week for two weeks. CDDP was administered weekly at 5 mg/kg intravenously for two weeks.

The test system is the same in data set [2]. As to the kind of experiment: MKN-45 human gastric tumor xenograft model (Example 88). A general note: Xenograft models place foreign cells or tissue in a host animal.
Description: (§2) Specifically, gastric cancer cell lines MKN-45 and Hsc-39 were tested.
In data set [3] the test system is NCI-H441 non-small cell lung cancer cells. The data set can be described thus: 72 h MTT proliferation assay, equipotent fixed-ratio combination, isobologram analysis (Calcusyn). Format: cell-based, human. The source says: (§1) Erlotinib is an inhibitor of the epidermal growth factor receptor and is indicated for the treatment of patients with locally advanced or metastatic non-small cell lung cancer after failure of at least one prior chemotherapy regimen, and is indicated for the first-line treatment of patients with locally advanced, unresectable or metastatic pancreatic cancer.

The target of data set [4] is T1, c-Met (Homo sapiens, UniProt P08581). As to the kind of experiment: c-Met biochemical assays.
In data set [5] the test system is NCI-H441 NSCLC human tumor xenograft. The data set can be described thus: NCI-H441 human lung tumor xenograft model. Type of data set: in vivo. The conditions noted are these: for BW loss: on day 4. The procedure:
Erlotinib was administered daily at 100 mg/kg or 50 mg/kg orally, five days a week for four weeks.
Gefitinib was administered daily at 50 mg/kg orally, five days a week for four weeks.

Data set [6] relates to Hsc-39 human gastric tumor xenograft. As to the kind of experiment: Hsc-39 human gastric tumor xenograft model. Format: in vivo.
Description: as §2
Data set [7] relates to subcutaneous NCI-H522 NSCLC tumors. The conditions noted are these: for tolerability: mouse, in vivo, po. On the procedure: All regimens were orally administered once daily for 21 days. Tumor sizes were evaluated periodically during treatment at the indicated days post-inoculation.
Data set [8] relates to MIA PaCa-2 pancreatic tumor cells. As to the kind of experiment: 72 h MTT proliferation assay, equipotent fixed-ratio combination, isobologram analysis (Calcusyn).
Data set [9] relates to HT29 colon cancer cells. The description is as above. Format: cell-based. The conditions noted are these: Homo sapiens.
From the text: as §1
Gefitinib is an inhibitor of the EGF receptor.

Data set [10] deals with PC-3 cells. The data set is described as above.
Description: Cell culture and reagents: NCI-H441, PC-3, MIA PaCa-2, HeLa, HT-29 and A549 cancer cell lines (American Type Culture Collection) were cultured in Dulbecco's modified Eagle's medium containing 10% fetal bovine serum, 100 units/mL penicillin, 100 g/mL streptomycin, and 2 mM L-glutamine.
Duplicate independent experiments were performed for each cell line/drug combination. Data were then analyzed by Calcusyn™ (Biosoft, Cambridge, UK) data analysis software.
Cell survival analysis. In some experiments, cell survival was determined by the 3-(4,5-dimethylthiazol-2-yl)-2,5-diphenyl tetrazolium bromide (MTT) assay. Briefly, cells were plated in a 96-well plate at 5-10,000 cells per well, cultured for 24 hours in complete growth medium, and then treated with various drugs and drug combinations for 72 hours. […] Data were normalized to untreated controls and analyzed with Microsoft Excel.
Median effect plots and isobolograms were performed for each experiment.
Data set [11] has as its target T1, c-Met. The data set can be described thus: c-Met cell-based assays. The conditions noted are these: a number of cell-based assays.
The subject of data set [12] is 22RV1. The data set can be described thus: 72 hr MTS assay, combination index by CalcuSyn. Format: cell-based, human. As to conditions: 22RV1 (Prostate), chemotherapeutic agent combined with Agent A.
The test system of data set [13] is DU-145. As to the kind of experiment: 72 hr MTS assay, combination index by CalcuSyn. Format: cell-based, human. As to conditions: DU-145 (Prostate), chemotherapeutic agent combined with Agent A.
Data set [14] has as its system HPAF-II. As to the kind of experiment: 72 hr MTS cytotoxicity assay, combination with gemcitabine. Type of data set: cell-based, human. The conditions noted are these: HPAF-II (Pancreatic), chemotherapeutic agent combined with Agent A. For orientation: Tetrazolium assays rely on reduction of a dye to a coloured formazan, in cell work by metabolically active cells.
Description: (§3) MIA PaCa-2 (also referred to as PACA2), PANC-1, CFPAC-1, and Hs766T human pancreatic cell lines were maintained in DMEM supplemented with 10% fetal bovine serum (FBS), penicillin, streptomycin, and fungizone. AsPC-1 cells were maintained in RPMI supplemented with 10% FBS, penicillin, streptomycin, and fungizone. HPAF-II cells were maintained in MEM supplemented with 10% FBS, penicillin, streptomycin, and fungizone. […] MTS reagent (Promega, Madison, Wis.) was added to each well and plates were incubated for 4 hr at 37° C.
In data set [15] the test system is PANC-1. Described as above. Format: cell-based, human. As to conditions: PANC-1 (Pancreatic), chemotherapeutic agent combined with Agent A.
Description: as §3
Data set [16] relates to AsPC-1. The data set is described as above. Format: cell-based, human. As to conditions: AsPC-1 (Pancreatic), chemotherapeutic agent combined with Agent A.
Description: as §3
The mark [17] stands for this setting: Agent A 300 mg/kg p.o. qd × 5 × 2.
The mark [18] stands for this setting: Agent A 300 mg/kg p.o. qd × 5 × 2, on day 10.
Setting [19] is: Homo sapiens, NCI-H441, NCI-H441 NSCLC cells, predicted value used to set the ratio, read-out: IC50, predicted.
Setting [20] is: Homo sapiens, MIA PaCa-2, read-out: IC50, predicted, MIA PaCa-2 cells, predicted value used to set the ratio.
[21] abbreviates: Homo sapiens, PC-3, 72 h, PC-3, 72 h, single agents and fixed-ratio combination.
Setting [22] is: Homo sapiens, PC-3, read-out: IC50, predicted, PC-3 cells, predicted value used to set the ratio.
Where [23] appears, read: Capecitabine 360 mg/kg p.o. qd × 5 × 2.
Setting [24] is: Erlotinib 50 mg/kg p.o. qd × 5 × 4.
The mark [25] stands for this setting: Erlotinib 100 mg/kg p.o. qd × 5 × 4.
The mark [26] stands for this setting: Gefitinib 50 mg/kg p.o. qd × 5 × 4.

T1 sequence (P08581 25-1390): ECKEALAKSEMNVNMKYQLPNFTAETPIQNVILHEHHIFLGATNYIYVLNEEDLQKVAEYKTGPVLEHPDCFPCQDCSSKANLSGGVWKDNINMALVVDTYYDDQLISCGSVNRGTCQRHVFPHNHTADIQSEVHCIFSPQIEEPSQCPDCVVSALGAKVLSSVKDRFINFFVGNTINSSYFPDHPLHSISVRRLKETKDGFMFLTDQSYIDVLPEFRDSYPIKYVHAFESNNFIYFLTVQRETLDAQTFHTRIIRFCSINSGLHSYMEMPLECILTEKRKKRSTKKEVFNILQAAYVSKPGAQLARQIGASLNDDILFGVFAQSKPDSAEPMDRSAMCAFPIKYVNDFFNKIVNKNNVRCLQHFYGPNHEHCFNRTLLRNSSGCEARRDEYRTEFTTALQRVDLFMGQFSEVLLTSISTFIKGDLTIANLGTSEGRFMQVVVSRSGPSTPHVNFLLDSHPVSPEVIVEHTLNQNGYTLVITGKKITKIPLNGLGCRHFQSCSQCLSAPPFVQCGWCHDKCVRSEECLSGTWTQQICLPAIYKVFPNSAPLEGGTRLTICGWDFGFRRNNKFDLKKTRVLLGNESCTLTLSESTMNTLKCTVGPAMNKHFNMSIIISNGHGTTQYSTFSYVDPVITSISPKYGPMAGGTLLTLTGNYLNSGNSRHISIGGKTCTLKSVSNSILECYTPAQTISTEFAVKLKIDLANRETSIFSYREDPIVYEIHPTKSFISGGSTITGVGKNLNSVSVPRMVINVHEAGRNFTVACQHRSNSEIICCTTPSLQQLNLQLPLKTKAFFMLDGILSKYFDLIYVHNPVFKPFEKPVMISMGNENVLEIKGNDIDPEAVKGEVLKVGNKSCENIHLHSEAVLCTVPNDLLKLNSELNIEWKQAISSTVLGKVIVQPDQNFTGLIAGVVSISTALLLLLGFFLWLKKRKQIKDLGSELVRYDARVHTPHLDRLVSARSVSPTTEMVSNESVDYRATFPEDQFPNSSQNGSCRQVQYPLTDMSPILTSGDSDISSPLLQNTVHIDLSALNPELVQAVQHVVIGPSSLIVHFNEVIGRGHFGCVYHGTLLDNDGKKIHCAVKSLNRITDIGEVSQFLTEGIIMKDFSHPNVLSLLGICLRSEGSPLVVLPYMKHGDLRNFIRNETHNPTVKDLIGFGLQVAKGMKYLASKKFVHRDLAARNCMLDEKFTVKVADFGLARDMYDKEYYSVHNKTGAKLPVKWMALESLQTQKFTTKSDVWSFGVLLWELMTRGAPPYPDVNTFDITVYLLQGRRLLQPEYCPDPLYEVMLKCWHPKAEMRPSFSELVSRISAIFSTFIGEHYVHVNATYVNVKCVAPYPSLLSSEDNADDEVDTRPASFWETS

`COc1cccc([C@@H]2C(=O)NC(=O)[C@H]2c2cn3c4c(cccc24)CCC3)c1` (racemic) [Example 68, (±)-Trans-3-(5,6-dihydro-4H-pyrrolo[3,2,1-ij]quinolin-1-yl)-4-(3-methoxyphenyl)pyrrolidine-2,5-dione] had a melting point of 87 to 91 °C.

As to `O=C1NC(=O)[C@@H](c2cn3c4c(cccc24)CCC3)[C@@H]1c1cccc(O)c1` (racemic) [Example 69, (±)-Trans-3-(5,6-dihydro-4H-pyrrolo[3,2,1-ij]quinolin-1-yl)-4-(3-hydroxyphenyl)pyrrolidine-2,5-dione], the melting point is 108 to 110 °C.

As to `O=C1NC(=O)[C@@H](c2cn3c4c(cccc24)CCC3)[C@@H]1c1ccc(F)cc1` (racemic) [Example 70, (±)-Trans-3-(5,6-dihydro-4H-pyrrolo[3,2,1-ij]quinolin-1-yl)-4-(4-fluorophenyl)pyrrolidine-2,5-dione], the melting point is 208 to 210 °C.

`O=C1NC(=O)[C@@H](c2cn3c4c(cccc24)CCC3)[C@@H]1c1ccc(O)cc1` (racemic) [Example 72, (±)-Trans-3-(5,6-dihydro-4H-pyrrolo[3,2,1-ij]quinolin-1-yl)-4-(4-hydroxyphenyl)pyrrolidine-2,5-dione] had a melting point of 105 to 107 °C.

Regarding `O=C1NC(=O)[C@@H](c2cn3c4c(cccc24)CCC3)[C@@H]1c1c[nH]c2ccccc12` (single isomer, unassigned) [Agent A], the Mortality in data set [1] (setting [17]), in [2] (setting [17]) and in data set [5] (Agent A 300 mg/kg p.o. qd × 5 × 4) was 0/5 throughout. For the same compound, the “T/C Min” value is reported as 0.50 (4) in [1] (Agent A 300 mg/kg p.o. qd × 5 × 2, on day 4); 0.61 (15) in data set [2] (Agent A 300 mg/kg p.o. qd × 5 × 2, on day 15); 0.52 (17) in data set [5] (Agent A 300 mg/kg p.o. qd × 5 × 4, on day 17); 0.63 (10) in data set [6] (setting [18]). Also, the BW loss in data set [1] (setting [17]) is −1.7 (21) g; in data set [2] (setting [18]) it was −1.3 (10) g. Moreover, the IC50 in data set [3] (setting [19]) was 300 nM; in data set [8] (setting [20]), 150 nM; in [9] (HT-29, 72 h, HT29, 72 h, single agents and fixed-ratio combination, read-out: IC50), 179 nM; in data set [9] (HT-29, HT29 cells, predicted value used to set the ratio, read-out: IC50, predicted), 150 nM; in data set [10] (setting [21]), 875 nM; in data set [10] (setting [22]), 1000 nM. Moreover, the IC50 in data set [10] (PC-3, 72 h, single agents and fixed-ratio combination) is 553 nM. The c-Met activity entry in [4] and in data set [11] was “inhibit c-Met activity” each time. Further, the tolerability entry in data set [7] was “well-tolerated”. The “effects on body weight gain” value in data set [7] (oral gavage once daily for 21 days, all cohorts) is on record as “no adverse effects on body weight gain”.

With `CCCCCOC(=O)Nc1nc(=O)n([C@@H]2O[C@H](C)[C@@H](O)[C@H]2O)cc1F` [Capecitabine, capecitabine], in data set [1] (setting [23]), the Mortality is listed as 0/5 and the BW loss is −1.4 (21) g. In addition, the “T/C Min” value in data set [1] (Capecitabine 360 mg/kg p.o. qd × 5 × 2, on day 14) is reported as 0.42 (14).

`N.N.[Cl][Pt][Cl]` [Cisplatin, cisplatin]: in [1] (Cisplatin 5 mg/kg i.v. Weekly × 2), the Mortality is reported as 0/5. Besides, the “T/C Min” value in data set [1] (Cisplatin 5 mg/kg i.v. Weekly × 2, on day 10) is recorded as 0.55 (10). Also, the IC50 in data set [8] (MIA PaCa-2, 72 h, single agents and fixed-ratio combination) is 3370 nM and 3790 nM.

With `CC(=O)O[C@@]12CO[C@@H]1C[C@H](O)[C@@]1(C)C(=O)[C@H](O)C3=C(C)[C@@H](OC(=O)[C@H](O)[C@@H](NC(=O)OC(C)(C)C)c4ccccc4)C[C@@](O)([C@@H](OC(=O)c4ccccc4)[C@H]21)C3(C)C` [Docetaxel, docetaxel], the Mortality in data set [2] (Docetaxel 7.5 mg/kg i.v. single) and in [2] (Docetaxel 15 mg/kg i.v. single) was 0/5 throughout. In addition, the “T/C Min” value in data set [2] (Docetaxel 7.5 mg/kg i.v. single, on day 15) is given as 0.63 (15); in data set [2] (Docetaxel 15 mg/kg i.v. single, on day 7), 0.68 (7); in data set [6] (Docetaxel 7.5 mg/kg i.v. single, on day 17), 0.46 (17); in data set [6] (Docetaxel 15 mg/kg i.v. single, on day 17), 0.40 (17). The “Combination Conclusion” value in data set [12] and in data set [13] was “Synergism” throughout. Further, the “Combination Index Values at ED50” value in data set [12] and in [13] was 0.7 each time. The IC50 in data set [8] (Homo sapiens, MIA PaCa-2, 72 h, MIA PaCa-2, 72 h, single agents and fixed-ratio combination) was 5.1 nM; in [8] (setting [20]) it was approximately 5 nM; in [10] (setting [21]), 6 nM; in [10] (setting [22]), approximately 5 nM; in data set [10] (PC-3, 72 h, single agents and fixed-ratio combination, listed as Taxotere) it was 3.5 nM.

For the compound `C#Cc1cccc(Nc2ncnc3cc(OCCOC)c(OCCOC)cc23)c1` [Erlotinib, erlotinib], the IC50 in data set [3] (Homo sapiens, NCI-H441, 72 h, NCI-H441, 72 h, single agents and fixed-ratio combination, read-out: IC50) was 3560 nM; in data set [3] (setting [19]) it was approximately 1000 nM; in [3] (NCI-H441, 72 h, single agents and fixed-ratio combination, read-out: IC50), 3160 nM; in data set [9] (HT-29, HT29, 72 h, single agents and fixed-ratio combination, read-out: IC50) it was 56300 nM. Besides, the Mortality in data set [5] (setting [24]) and in [5] (setting [25]) was 0/5 each time. Moreover, the BW loss in data set [5] (setting [24]) is recorded as −0.6 (4) g; in data set [5] (setting [25]), −1.0 (4) g. Moreover, the “T/C Min” value in data set [5] (Erlotinib 50 mg/kg p.o. qd × 5 × 4, on day 17) is recorded as 0.59 (17); in [5] (Erlotinib 100 mg/kg p.o. qd × 5 × 4, on day 17) it was 0.50 (17).

For the compound `O=c1[nH]cc(F)c(=O)[nH]1` [Example 5-FU, fluorouracil], in data set [1] (5-FU 10 mg/kg i.v. qd × 5 × 2), the Mortality is listed as 0/5 and the BW loss is recorded as −3.4 (21) g. In addition, the “T/C Min” value in [1] (5-FU 10 mg/kg i.v. qd × 5 × 2, on day 14) is 0.63 (14).

`O=C1NC(=O)C(c2cn3c4c(cccc24)CCC3)=C1c1ccc(OCc2ccccc2)cc1` [Example 66, 3-[4-(benzyloxy)phenyl]-4-(5,6-dihydro-4H-pyrrolo[3,2,1-ij]quinolin-1-yl)-1H-pyrrole-2,5-dione] gave a melting point of 262 to 265 °C.

`O=C1NC(=O)C(c2cn3c4c(cccc24)CCC3)=C1c1ccc(F)cc1` [Example 67, 3-(5,6-dihydro-4H-pyrrolo[3,2,1-ij]quinolin-1-yl)-4-(4-fluorophenyl)-1H-pyrrole-2,5-dione] yielded a melting point of 234 to 235 °C.

Regarding `COc1cc2ncnc(Nc3ccc(F)c(Cl)c3)c2cc1OCCCN1CCOCC1` [Gefitinib, gefitinib], in data set [5] (setting [26]), the Mortality is recorded as 0/5 and the BW loss is given as −0.5 (4) g. Besides, the “T/C Min” value in data set [5] (Gefitinib 50 mg/kg p.o. qd × 5 × 4, on day 21) was 0.60 (21).

Regarding `Nc1ccn([C@@H]2O[C@H](CO)[C@@H](O)C2(F)F)c(=O)n1` [Gemcitabine, gemcitabine], the “Combination Conclusion” value in data set [14], in data set [15] and in [16] was “Synergism” throughout. Moreover, the “Combination Index Values at ED50” value in [14] is on record as 0.2; in data set [15], 0.7; in data set [16] it was 0.6.

`CNC(=O)c1cc(Oc2ccc(NC(=O)Nc3ccc(Cl)c(C(F)(F)F)c3)cc2)ccn1` [sorafenib]: in data set [7], the tolerability result was “well-tolerated”.
